Among the test systems are NCI-H460; OVCAR-5; UACC-62; ACHN; SNB-19; DU-145; MDA-MB-231; HCT-15; OVCAR-8; K562; SNB-75; SK-MEL-5; HCC 2998; HT-29; UACC-257; CCRF-CEM.
Holding throughout (test): inhibition of tumour cell growth, NCI panel, 48 h

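Results reflect a 48-hour exposure of cells in 96-well plates to compound at five concentrations. Here, GI50 denotes the concentration required for 50% inhibition of growth.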 Activity calls are given as the source filed them. Rule as the data show it: active = GI50 up to about 1.1 µM and inactive = higher.

With `Cc1ccc(S(=O)(=O)[N-]C2C(=O)c3ccccc3C(=O)C2[n+]2cccc(C(N)=O)c2)cc1` (stereo not drawn), the GI50 in the test with NCI-H460 was > 100 µM (inactive); in the test with OVCAR-5, > 100 µM (inactive); in the test on UACC-62 it was > 100 µM (inactive); in the test on ACHN it was > 100 µM (inactive); with SNB-19 it was > 100 µM (inactive); with DU-145, 40.6 µM (inactive). Moreover, the GI50 in the test on MDA-MB-231 is 32.6 µM (inactive); in the test with HCT-15, greater than 100 µM; in the test with OVCAR-8 it was > 100 µM (inactive); with K562 it was > 100 µM (inactive); with SNB-75 it was > 100 µM (inactive); in the test on SK-MEL-5, > 100 µM (inactive). Further, the GI50 in the test on HCC 2998 was 38.5 µM (inactive); with HT-29, > 100 µM (inactive); in the test with UACC-257 it was > 100 µM (inactive); with CCRF-CEM, > 100 µM (inactive).
In the case of `C=C(C)[C@@H]1CC[C@]2(C(=O)O)CC[C@]3(C)[C@H](CCC4[C@@]5(C)CC[C@H](C(=O)/C=C/c6ccc(O)c(O)c6)C(C)(C)[C@@H]5CC[C@]43C)[C@@H]12` (stereo partly drawn), the GI50 with NCI-H460 was 2.81 µM (inactive); in the test with OVCAR-5, 12.7 µM (inactive); in the test on UACC-62, 3.77 µM (inactive); with ACHN, 2.72 µM (inactive); with SNB-19, 11.9 µM (inactive); with DU-145, 5.15 µM (inactive). In addition, the GI50 with MDA-MB-231 was 4.36 µM (inactive); in the test with HCT-15, 3.31 µM; in the test with OVCAR-8 it was 4.46 µM (inactive); in the test on K562, 3.85 µM (inactive); with SNB-75, 0.0513 µM (active); in the test on SK-MEL-5, 2.85 µM (inactive). Moreover, the GI50 was 1.88 µM (inactive) in the test on HCC 2998, 2.81 µM (inactive) in the test on UACC-257 and 2.42 µM (inactive) in the test with CCRF-CEM.
In the case of `COC(=O)c1c(C)cc(OC)c(C/C=C(\C)CCCc2coc(C=C(C)C)c2)c1OC`, the GI50 in the test on NCI-H460, in the test with OVCAR-5, in the test on UACC-62, with ACHN, in the test with SNB-19 and with DU-145 was > 100 µM (inactive) in each case. The GI50 was > 100 µM (inactive) in the test with MDA-MB-231; greater than 100 µM with HCT-15; > 100 µM (inactive) in the test with OVCAR-8; > 100 µM (inactive) in the test on K562; 21.3 µM (inactive) in the test with SNB-75; > 100 µM (inactive) with SK-MEL-5. Also, the GI50 is > 100 µM (inactive) in the test with HCC 2998, 74.8 µM (inactive) in the test on HT-29, > 100 µM (inactive) in the test with UACC-257 and 41.5 µM (inactive) with CCRF-CEM.
With `N#C[C@H](C(=O)c1ccccc1F)c1nc2ccccc2[nH]1`, the GI50 in the test on NCI-H460, in the test on OVCAR-5, with UACC-62, in the test with ACHN, in the test on SNB-19 and in the test with DU-145 was > 100 µM (inactive) in each case. The GI50 with MDA-MB-231 is > 100 µM (inactive); in the test with HCT-15, greater than 100 µM; in the test with OVCAR-8, > 100 µM (inactive); in the test with K562 it was > 100 µM (inactive); with SNB-75 it was 82.6 µM (inactive); in the test on HCC 2998 it was > 100 µM (inactive). Besides, the GI50 is 69.2 µM (inactive) in the test with HT-29, > 100 µM (inactive) in the test on UACC-257 and 53 µM (inactive) with CCRF-CEM.
Consider `CCN(CC)c1ccc2cc(-c3nc4ccccc4n3C)c(=O)oc2c1`, for which the GI50 was 0.286 µM (active) in the test with NCI-H460; 1.15 µM (inactive) in the test with OVCAR-5; 0.231 µM (active) in the test with UACC-62; 2.79 µM (inactive) in the test with ACHN; 0.408 µM (active) with SNB-19; 0.306 µM (active) in the test on DU-145. Besides, the GI50 was 0.889 µM (active) with MDA-MB-231; 0.17 µM in the test on HCT-15; 0.497 µM (active) in the test on OVCAR-8; 0.102 µM (active) in the test on K562; 0.0177 µM (active) with SNB-75; 0.0948 µM (active) in the test with SK-MEL-5. In addition, the GI50 in the test with HCC 2998 was 0.685 µM (active); with HT-29 it was 0.259 µM (active); in the test on UACC-257, 1.17 µM (inactive); in the test with CCRF-CEM, 0.154 µM (active).
